# Data: ChEMBL document CHEMBL5096147, “Glycogen Synthase Kinase 3β: A New Gold Rush in Anti-Alzheimer's Disease Multitarget Drug Discovery?” (J Med Chem, 2021)
# Tests used:
# Adenosine kinase = Adenosine kinase (Homo sapiens, UniProt P55263); experiment: Inhibition of human wild type AK expressed in Escherichia coli using [2,8- 3H]-Ado and ATP as substrate by radiometric analysis
# [1] = biological target: T1, Glycogen synthase kinase-3 beta (Homo sapiens, UniProt P49841)
# Description: Inhibition of GSK-3beta (unknown origin)
# Beta-secretase 1 = Beta-secretase 1 (Homo sapiens, UniProt P56817); experiment: Inhibition of BACE-1 (unknown origin) using M-240 (methoxycoumarin-Ser-Glu-Val-Asn-Leu-Asp-Ala-Glu-Phe-Lys-dinitrophenyl) peptide as substrate preincubated for 60 mins followed by substrate addition and measured after 15 mins by fluorescence based analysis
# [2] = biological target: T1, Glycogen synthase kinase-3 beta; experiment: Inhibition of recombinant human GSK-3beta incubated for 30 mins using prephosphorylated polypeptide as substrate in presence of ATP by Kinase-Glo reagent based luminescent assay
# [3] = Kinetic aqueous solubility of the compound in PBS buffer at pH 7.4 at 250 uM and measured after 24 hrs by UPLC/MS analysis; type: physicochemical; settings: read-out: Kinetic_solubility
# [4] = Cmax in CD-1 mouse plasma at 10 mg/kg, po and measured after 30 mins by LC-MS/MS analysis; type: ADME, organism-based; set-up: dose 10 mg/kg, time 30 min, route po
# [5] = Cmax in CD-1 mouse brain at 10 mg/kg, po and measured after 30 mins by LC-MS/MS analysis; type: ADME, organism-based; set-up: dose 10 mg/kg, time 30 min, route po
# T1 sequence (P49841 whole entry): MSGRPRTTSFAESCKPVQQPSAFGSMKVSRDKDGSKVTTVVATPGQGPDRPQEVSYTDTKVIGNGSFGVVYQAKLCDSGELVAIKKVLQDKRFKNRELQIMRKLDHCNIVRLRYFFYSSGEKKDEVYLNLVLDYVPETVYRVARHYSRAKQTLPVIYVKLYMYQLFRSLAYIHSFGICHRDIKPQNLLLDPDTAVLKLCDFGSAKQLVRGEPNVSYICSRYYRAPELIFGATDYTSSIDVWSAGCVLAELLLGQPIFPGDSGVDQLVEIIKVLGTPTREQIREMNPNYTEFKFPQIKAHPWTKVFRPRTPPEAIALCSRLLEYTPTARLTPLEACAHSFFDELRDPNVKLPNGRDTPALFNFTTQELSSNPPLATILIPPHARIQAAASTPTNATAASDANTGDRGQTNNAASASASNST
# Chain of Beta-secretase 1 (P56817 whole entry): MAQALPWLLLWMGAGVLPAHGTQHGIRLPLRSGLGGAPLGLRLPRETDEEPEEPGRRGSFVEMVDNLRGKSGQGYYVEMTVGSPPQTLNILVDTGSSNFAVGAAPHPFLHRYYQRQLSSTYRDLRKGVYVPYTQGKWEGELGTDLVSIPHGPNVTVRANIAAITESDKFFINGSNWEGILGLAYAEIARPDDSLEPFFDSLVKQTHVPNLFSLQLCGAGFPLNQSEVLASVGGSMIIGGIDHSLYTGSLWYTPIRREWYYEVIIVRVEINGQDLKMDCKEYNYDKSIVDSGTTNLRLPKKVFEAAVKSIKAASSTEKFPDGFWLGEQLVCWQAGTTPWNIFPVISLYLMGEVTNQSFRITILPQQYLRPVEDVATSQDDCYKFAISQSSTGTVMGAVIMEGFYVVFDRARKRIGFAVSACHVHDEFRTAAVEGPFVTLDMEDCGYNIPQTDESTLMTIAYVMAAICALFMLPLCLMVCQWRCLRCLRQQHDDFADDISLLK
# Chain of Adenosine kinase (P55263 whole entry): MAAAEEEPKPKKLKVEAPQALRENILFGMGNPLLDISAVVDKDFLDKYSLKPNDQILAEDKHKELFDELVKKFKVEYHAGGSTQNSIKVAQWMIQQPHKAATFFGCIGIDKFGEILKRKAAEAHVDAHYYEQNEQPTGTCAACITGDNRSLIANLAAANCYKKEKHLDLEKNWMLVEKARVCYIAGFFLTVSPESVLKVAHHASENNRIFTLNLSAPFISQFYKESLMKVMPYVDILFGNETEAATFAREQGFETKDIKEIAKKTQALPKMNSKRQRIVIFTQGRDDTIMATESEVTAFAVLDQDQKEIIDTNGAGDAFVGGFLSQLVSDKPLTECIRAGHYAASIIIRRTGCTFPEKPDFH
smiles,measurement,setting,value
CCC1(c2ccc(COc3ccccc3)cc2)Oc2ccccc2-n2cccc2C1=O (configuration not stated),IC50,Adenosine kinase,1200 nM
COc1cc2c(Br)cc3c(c2cc1OC)C(=O)NC3=O,IC50,[1],304 nM
NC1=NC(c2ccc(F)cc2)CC(=O)N1 (configuration not stated),IC50,Beta-secretase 1,18 µM
same,IC50,[2],14.7 µM
same,"solubility kinetic at 24 h, 250 µM",[3],> 250 µM
same,Cmax,[4],665 ng/mL
same,Cmax,[5],0.613 ng/mL
